Reference: ChEMBL document CHEMBL1201862, “PubChem BioAssay data set” (2004)
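Five concentrations, 48 hours, 96-well plates. Abbreviation: GI50, concentration required for 50% inhibition of growth.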 The source made the active and inactive calls. Cut-off read from the data, not from the text of the source: active = GI50 up to about 1.1 µM and inactive = higher.

Columns and labels:
Test in all cases: NCI anticancer screen, dose series, 48 h
HCT-116 = tested on: HCT-116
KM12 = tested on: KM12
NCI-H23 = tested on: NCI-H23
ACHN = tested on: ACHN
RPMI-8226 = tested on: RPMI-8226
Malme-3M = tested on: Malme-3M
CCRF-CEM = tested on: CCRF-CEM
U-251 = tested on: U-251
OVCAR-4 = tested on: OVCAR-4
EKVX = tested on: EKVX
UACC-62 = tested on: UACC-62
SW-620 = tested on: SW-620
SF-539 = tested on: SF-539
COLO 205 = tested on: COLO 205
MDA-MB-231 = tested on: MDA-MB-231
Hs-578T = tested on: Hs-578T
A549 = tested on: A549
MDA-MB-435 = tested on: MDA-MB-435
DU-145 = tested on: DU-145
HL-60 = tested on: HL-60

Measured: GI50

O=C(O)c1cc(Cl)cc(Cc2cc(Cl)cc(C(=O)O)c2O)c1O
inactive: HCT-116 > 100 µM | KM12 > 100 µM | NCI-H23 > 100 µM | ACHN > 100 µM | RPMI-8226 > 100 µM | Malme-3M > 100 µM | CCRF-CEM > 100 µM | U-251 > 100 µM | OVCAR-4 > 100 µM | EKVX > 100 µM | UACC-62 > 100 µM | SW-620 > 100 µM | SF-539 > 100 µM | COLO 205 > 100 µM | MDA-MB-231 > 100 µM | Hs-578T > 100 µM | A549 > 100 µM | MDA-MB-435 > 100 µM | DU-145 > 100 µM

c1ccc(-c2cnc(-c3ccc(-c4ncc(-c5ccccc5)o4)cc3)o2)cc1
inactive: HCT-116 > 100 µM | KM12 > 100 µM | NCI-H23 > 100 µM | ACHN > 100 µM | RPMI-8226 > 100 µM | Malme-3M > 100 µM | CCRF-CEM > 100 µM | U-251 > 100 µM | OVCAR-4 > 100 µM | EKVX > 100 µM | UACC-62 > 100 µM | SW-620 > 100 µM | COLO 205 > 100 µM | MDA-MB-231 > 100 µM | HL-60 > 100 µM | Hs-578T > 100 µM | A549 > 100 µM | MDA-MB-435 > 100 µM | DU-145 > 100 µM

Cc1cc2c(cc1Cl)Sc1nnc(Nc3ccccc3)n1S2(=O)=O
inactive: HCT-116 9.64 µM | KM12 12 µM | NCI-H23 3.59 µM | ACHN 12.2 µM | RPMI-8226 2.61 µM | U-251 3.75 µM | OVCAR-4 6.89 µM | EKVX 11.7 µM | SW-620 7.87 µM | SF-539 2.39 µM | MDA-MB-231 11.7 µM | HL-60 1.98 µM | Hs-578T 3.15 µM | A549 12.1 µM | MDA-MB-435 5.01 µM | DU-145 18.2 µM

CN(C)CCNc1ccc(NCC[N+](C)(C)Cc2ccc([N+](=O)[O-])cc2)c2c1C(=O)c1c(O)ccc(O)c1C2=O
inactive: HCT-116 15.8 µM | KM12 26.1 µM | NCI-H23 54 µM | RPMI-8226 7.57 µM | CCRF-CEM 11.5 µM | U-251 34 µM | OVCAR-4 > 100 µM | EKVX > 100 µM | UACC-62 31.6 µM | SW-620 27.9 µM | COLO 205 27.6 µM | MDA-MB-231 43.2 µM | HL-60 54.2 µM | Hs-578T 28.9 µM | MDA-MB-435 35.2 µM | DU-145 30.1 µM

N#Cc1nc(-c2ccccc2O)oc1N
inactive: HCT-116 78.2 µM | KM12 42 µM | ACHN > 100 µM | RPMI-8226 20.4 µM | CCRF-CEM 16.4 µM | U-251 > 100 µM | EKVX 48.5 µM | UACC-62 95.9 µM | SW-620 65 µM | MDA-MB-231 > 100 µM | HL-60 > 100 µM | Hs-578T 40.9 µM | A549 63.5 µM | MDA-MB-435 99.8 µM | DU-145 > 100 µM

CCOC(=O)/C(C#N)=N\Nc1ccc(-n2c(C)nc3ccc(Br)cc3c2=O)cc1
inactive: HCT-116 42.2 µM | KM12 40.3 µM | NCI-H23 > 100 µM | ACHN > 100 µM | RPMI-8226 30.3 µM | CCRF-CEM 33.2 µM | U-251 91.2 µM | EKVX 87.1 µM | UACC-62 85.5 µM | SW-620 90.6 µM | SF-539 87.9 µM | COLO 205 58.3 µM | MDA-MB-231 > 100 µM | HL-60 21.9 µM | Hs-578T 51.3 µM | A549 50.2 µM | MDA-MB-435 84.1 µM | DU-145 57.4 µM

COc1ccccc1/C=C1\S/C(=N/Nc2nc(C)c(C(C)=O)s2)NC1=O
inactive: HCT-116 43.3 µM | KM12 38 µM | NCI-H23 42.1 µM | ACHN 49.1 µM | RPMI-8226 30.4 µM | CCRF-CEM 43.4 µM | U-251 33.7 µM | OVCAR-4 > 100 µM | UACC-62 36.4 µM | SW-620 46.1 µM | SF-539 44.1 µM | COLO 205 22.9 µM | MDA-MB-231 22.8 µM | HL-60 26.1 µM | Hs-578T 25.4 µM | A549 44.8 µM | MDA-MB-435 32.6 µM | DU-145 69.7 µM

FC1C2=C(SC1(F)F)C1CCC2C1 (stereo not drawn)
inactive: HCT-116 > 100 µM | KM12 > 100 µM | NCI-H23 > 100 µM | ACHN > 100 µM | RPMI-8226 > 100 µM | Malme-3M > 100 µM | OVCAR-4 > 100 µM | EKVX > 100 µM | UACC-62 > 100 µM | SW-620 > 100 µM | COLO 205 > 100 µM | MDA-MB-231 > 100 µM | HL-60 > 100 µM | Hs-578T > 100 µM | A549 > 100 µM | MDA-MB-435 > 100 µM | DU-145 > 100 µM
